pIC50: −log10 of the molar value. Where two headings read alike, the source gives them in different places.
Columns and labels:
HCC-2998 = type: cell-based; details: Homo sapiens
CCRF-CEM = type: cell-based; details: Homo sapiens
UO-31 = type: cell-based; details: Homo sapiens
HCT-15 = type: cell-based; details: Homo sapiens
MDA-MB-468 = type: cell-based; details: Homo sapiens
T-47D = type: cell-based; details: Homo sapiens, T47D
SN12C = type: cell-based; details: Homo sapiens
HS 578T = type: cell-based
K-562 = type: cell-based, human
HT29 = type: cell-based; details: Homo sapiens
HOP-92 = type: cell-based; details: Homo sapiens
TK-10 = type: cell-based; details: Homo sapiens
BT-549 = type: cell-based; details: Homo sapiens
HCT-116 = type: cell-based, human
SF-539 = type: cell-based; details: Homo sapiens
CAKI-1 = type: cell-based; details: Homo sapiens
MDA-MB-231/ATCC = type: cell-based
SR = type: cell-based, human
OVCAR-8 = type: cell-based; details: Homo sapiens
PC-3 = type: cell-based; details: Homo sapiens
786-0 = type: cell-based; details: Homo sapiens
SNB-19 = type: cell-based; details: Homo sapiens
HOP-62 = type: cell-based; details: Homo sapiens
SK-MEL-28 = type: cell-based; details: Homo sapiens
DU-145 = type: cell-based; details: Homo sapiens
NCI-H460 = type: cell-based; details: Homo sapiens
[1] = system: 59 human cancer cell-lines; type: cell-based
RPMI-8226 = type: cell-based
SK-OV-3 = type: cell-based; details: Homo sapiens
A498 = type: cell-based; details: Homo sapiens
NCI-H522 = type: cell-based; details: Homo sapiens
SK-MEL-2 = type: cell-based; details: Homo sapiens
MDA-MB-435 = type: cell-based; details: Homo sapiens
NCI-H226 = type: cell-based; details: Homo sapiens
[2] = system: Melanoma (cell line name not given); type: cell-based; details: Homo sapiens, under Melanoma
LOX IMVI = type: cell-based; details: Homo sapiens
MOLT-4 = type: cell-based; details: Homo sapiens
NCI/ADR-RES = type: cell-based; details: Homo sapiens
EKVX = type: cell-based; details: Homo sapiens
U251 = type: cell-based; details: Homo sapiens
OVCAR-3 = type: cell-based; details: Homo sapiens
[3] = read-out: LC50 (the source's name)
[4] = panel mean graph midpoint, Units Molar

SMILES: COc1cc(/C=C/C(=O)c2ccc(-n3cc(CN4CCN(c5cc6c(cc5F)c(=O)c(C(=O)O)cn6C5CC5)CC4)nn3)cc2)cc(OC)c1OC [Compound 4j, (E)-1-cyclopropyl-6-fluoro-4-oxo-7–(4-((1–(4-(3-(3,4,5-trimethoxyphenyl)acryloyl)phenyl)-1H-1,2,3-triazol-4-yl)methyl)piperazin-1-yl)-1,4-dihydroquinoline-3-carboxylic acid]
- GI50 (HCC-2998): 1.73 µM
- GI50 (CCRF-CEM): 2.63 µM
- CC50 (CCRF-CEM; [3]): > 100 µM
- GI50 (UO-31): 1.73 µM
- CC50 (UO-31; [3]): 30.5 µM
- GI50 (HCT-15): 2.25 µM
- CC50 (HCT-15; [3]): > 100 µM
- GI50 (MDA-MB-468): 1.96 µM
- CC50 (MDA-MB-468; [3]): > 100 µM
- GI50 (T-47D): 3.16 µM
- CC50 (T-47D; [3]): > 100 µM
- GI50 (SN12C): 2.66 µM
- CC50 (SN12C; [3]): 46.2 µM
- TGI (HS 578T; HS 578 T): >100 µM
- TGI (HS 578T; HS 578T): > 1.00E-4 Molar
- GI50 (HS 578T; Homo sapiens, HS 578T): 3.91 µM
- CC50 (HS 578T; Homo sapiens, HS 578T, read-out: LC50 (the source's name)): > 100 µM
- GI50 (K-562): 0.97 µM
- GI50 (K-562; Homo sapiens, K562): 0.977 µM
- CC50 (K-562; Homo sapiens, K562, read-out: LC50 (the source's name)): > 100 µM
- GI50 (HT29; HT-29): 1.24 µM
- CC50 (HT29; HT-29, read-out: LC50 (the source's name)): > 100 µM
- GI50 (HOP-92): 11.7 µM
- CC50 (HOP-92; [3]): > 100 µM
- GI50 (TK-10): 5.61 µM
- CC50 (TK-10; [3]): > 100 µM
- GI50 (BT-549): 1.71 µM
- GI50 (HCT-116; HCT-116): 0.21 µM
- GI50 (HCT-116; Homo sapiens, HCT-116, HCT-116): 0.206 µM
- pIC50 (HCT-116; Homo sapiens, HCT-116, HCT116, SRB assay): 6.70
- GI50 (SF-539): 1.91 µM
- CC50 (SF-539; [3]): 10.3 µM
- GI50 (CAKI-1): 5.1 µM
- CC50 (CAKI-1; [3]): 51.7 µM
- GI50 (MDA-MB-231/ATCC; Homo sapiens, MDA-MB-231, MDA-MB231/ATCC): 3.2 µM
- CC50 (MDA-MB-231/ATCC; Homo sapiens, MDA-MB-231/ATCC, read-out: LC50 (the source's name)): > 100 µM
- TGI (MDA-MB-231/ATCC; MDA-MB231/ATCC): >100 µM
- TGI (MDA-MB-231/ATCC; MDA-MB-231/ATCC): > 1.00E-4 Molar
- GI50 (SR): 0.43 µM
- GI50 (SR; Homo sapiens): 0.434 µM
- CC50 (SR; Homo sapiens, read-out: LC50 (the source's name)): > 100 µM
- GI50 (OVCAR-8): 4.03 µM
- CC50 (OVCAR-8; [3]): > 100 µM
- GI50 (PC-3): 2.54 µM
- CC50 (PC-3; [3]): > 100 µM
- GI50 (786-0): 1.67 µM
- GI50 (SNB-19): 4.52 µM
- CC50 (SNB-19; [3]): > 100 µM
- GI50 (HOP-62): 2.49 µM
- CC50 (HOP-62; [3]): > 100 µM
- GI50 (SK-MEL-28): 2.77 µM
- LC50 (SK-MEL-28): 78.9 µM
- GI50 (DU-145): 3.67 µM
- LC50 (lethal concentration 50%) (DU-145): > 100 µM
- GI50 (NCI-H460): 2.4 µM
- CC50 (NCI-H460; [3]): > 100 µM
- GI50 ([1]; Homo sapiens, range over all cancer cell lines): 0.21 to 21.1 µM
- Log10GI50 _MID [1, 4]: -5.58
- Log10LC50 _MID [1, 4]: -4.06
- Log10TGI _MID [1, 4]: -4.58
- GI50 (RPMI-8226; Homo sapiens, RPMI-8226, RPMI-8226): 0.401 µM
- CC50 (RPMI-8226; Homo sapiens, RPMI-8226, read-out: LC50 (the source's name)): > 100 µM
- GI50 (RPMI-8226; RPMI-8226): 0.4 µM
- GI50 (SK-OV-3): 7.09 µM
- CC50 (SK-OV-3; [3]): > 100 µM
- GI50 (A498): 4.18 µM
- CC50 (A498; [3]): 39.8 µM
- GI50 (NCI-H522): 4.25 µM
- LC50 (NCI-H522): > 100 µM
- GI50 (SK-MEL-2): 21.1 µM
- CC50 (SK-MEL-2; [3]): > 100 µM
- GI50 (MDA-MB-435): 1.49 µM
- CC50 (MDA-MB-435; [3]): > 100 µM
- GI50 (NCI-H226): 2.39 µM
- CC50 (NCI-H226; [3]): > 100 µM
- GI50 [2]: 1.73 µM
- GI50 (LOX IMVI): 1.57 µM
- CC50 (LOX IMVI; [3]): > 100 µM
- GI50 (MOLT-4): 3.32 µM
- CC50 (MOLT-4; [3]): > 100 µM
- GI50 (NCI/ADR-RES): > 100 µM
- CC50 (NCI/ADR-RES; [3]): > 100 µM
- GI50 (EKVX): 4.24 µM
- CC50 (EKVX; [3]): > 100 µM
- GI50 (U251; U-251): 1.48 µM
- CC50 (U251; U-251, read-out: LC50 (the source's name)): > 100 µM
- GI50 (OVCAR-3): 1.84 µM
- CC50 (OVCAR-3; [3]): > 100 µM
